Reference: patent publication US20210395676A1, “CARRIER FOR CELL CULTURE COMPRISING MICROCAPSULES CONTAINING NATURAL OIL” (Korea Research Institute of Chemical Technology, priority 2018, published 2021)

Tested on: artificial myocardial structure (cardiac organoid)
Assay: Contractile force-based cardiac toxicity assessment of drug-treated artificial myocardial structure
Format: cell-based
Conditions: FIG. 15
Source text: Furthermore, after additionally treating an artificial myocardial structure prepared by coculturing gelatin oil capsules and cardiomyocytes with various drugs, contractile forces of the drug-treated artificial myocardial structure were checked.

CC(C)NCC(O)c1ccc(O)c(O)c1 (stereo not drawn) [Isopreterenol]
beat rates (10 nM): accelerated
contractile forces (10 nM): changed strongly

COc1ccc(CCN(C)CCCC(C#N)(c2ccc(OC)c(OC)c2)C(C)C)cc1OC (stereo not drawn) [verapamil]
beat rates (125 nM): slow down and become somewhat irregular
